Measured values as given in US20230365592A1 (Agios Pharmaceuticals, Inc., priority 2022, published 2023).

Each compound was assayed against T1, human PAH with the R408W mutation (Homo sapiens, UniProt P00439, R408W) (assay: Cell Based Phenylalanine Flux Assay). Conditions: A375 cells expressing human R408W PAH; 24 hrs compound incubation; 13C-Tyrosine by LC-MS; average where tested multiple times; read-out: AC50.
T1 construct: expressed in transfected cells
T1 sequence (P00439 1-452 R408W): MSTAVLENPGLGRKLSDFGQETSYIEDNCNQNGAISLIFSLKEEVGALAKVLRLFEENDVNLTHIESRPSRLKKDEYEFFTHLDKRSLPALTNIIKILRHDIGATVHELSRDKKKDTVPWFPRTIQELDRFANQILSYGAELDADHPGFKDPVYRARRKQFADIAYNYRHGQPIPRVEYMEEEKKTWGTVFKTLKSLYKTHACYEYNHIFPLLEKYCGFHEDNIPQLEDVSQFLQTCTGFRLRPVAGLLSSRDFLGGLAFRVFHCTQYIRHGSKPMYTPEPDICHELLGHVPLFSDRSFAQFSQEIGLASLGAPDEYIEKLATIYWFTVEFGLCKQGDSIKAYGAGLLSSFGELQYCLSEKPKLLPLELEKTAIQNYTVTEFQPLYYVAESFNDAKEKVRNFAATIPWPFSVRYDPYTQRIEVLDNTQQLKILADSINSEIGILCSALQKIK
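Also: after compound treatment, cells received sepiapterin plus isotope-labelled Phenylalanine for 4 hours, then labelled Tyrosine in the medium was quantified, 10-point 2-fold dilution series run in duplicate.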

| SMILES | AC50 [nM] |
| --- | --- |
| O=C(c1nnc(-c2cnn(C(F)F)c2)o1)N1CCc2[nH]cnc2[C@H]1c1cc2c(C(F)F)cccn2n1 [Example 1374, (S)-(5-(1-(difluoromethyl)-1H-pyrazol-4-yl)-1,3,4-oxadiazol-2-yl)(4-(4-(difluoromethyl)pyrazolo[1,5-a]pyridin-2-yl)-6,7-dihydro-1H-imidazo[4,5-c]pyridin-5(4H)-yl)methanone] | < 500 |
| O=C(c1nnc(-c2cnn(C(F)F)c2)o1)N1CCc2[nH]cnc2[C@@H]1c1cc2c(C(F)F)cccn2n1 [Example 1375, (R)-(5-(1-(difluoromethyl)-1H-pyrazol-4-yl)-1,3,4-oxadiazol-2-yl)(4-(4-(difluoromethyl)pyrazolo[1,5-a]pyridin-2-yl)-6,7-dihydro-1H-imidazo[4,5-c]pyridin-5(4H)-yl)methanone] | > 5000 |
| O=C(c1nnc(-c2ccn(C(F)F)n2)o1)N1CCc2[nH]cnc2[C@H]1c1cc2c(C(F)F)cccn2n1 [Example 1377, (S)-(5-(1-(difluoromethyl)-1H-pyrazol-3-yl)-1,3,4-oxadiazol-2-yl)(4-(4-(difluoromethyl)pyrazolo[1,5-a]pyridin-2-yl)-6,7-dihydro-1H-imidazo[4,5-c]pyridin-5(4H)-yl)methanone] | < 500 |
| Cn1nc(C(F)F)cc1C(=O)N1CCc2[nH]cnc2[C@H]1c1cc2cccc(Cl)n2n1 [Example 1384, (S)-(4-(7-chloropyrazolo[1,5-a]pyridin-2-yl)-6,7-dihydro-1H-imidazo[4,5-c]pyridin-5(4H)-yl)(3-(difluoromethyl)-1-methyl-1H-pyrazol-5-yl)methanone] | < 500 |
| Cc1cccc2cc([C@@H]3c4nc[nH]c4CCN3C(=O)c3cc(C(F)F)nn3C)nn12 [Example 1388, (S)-(3-(difluoromethyl)-1-methyl-1H-pyrazol-5-yl)(4-(7-methylpyrazolo[1,5-a]pyridin-2-yl)-6,7-dihydro-1H-imidazo[4,5-c]pyridin-5(4H)-yl)methanone] | < 500 |
| O=C(c1nnc(-c2ncccn2)o1)N1CCc2[nH]cnc2[C@H]1c1cc2cccc(Cl)n2n1 [Example 1393, (S)-(4-(7-chloropyrazolo[1,5-a]pyridin-2-yl)-6,7-dihydro-1H-imidazo[4,5-c]pyridin-5(4H)-yl)(5-(pyrimidin-2-yl)-1,3,4-oxadiazol-2-yl)methanone] | < 500 |
| Cc1ncccc1-c1nnc(C(=O)N2CCc3[nH]cnc3[C@H]2c2cc3c(C(F)F)cccn3n2)o1 [Example 1394, (S)-(4-(4-(difluoromethyl)pyrazolo[1,5-a]pyridin-2-yl)-6,7-dihydro-1H-imidazo[4,5-c]pyridin-5(4H)-yl)(5-(2-methylpyridin-3-yl)-1,3,4-oxadiazol-2-yl)methanone] | < 500 |
| Cc1ncccc1-c1nnc(C(=O)N2CCc3[nH]cnc3[C@@H]2c2cc3c(C(F)F)cccn3n2)o1 [Example 1395, (R)-(4-(4-(difluoromethyl)pyrazolo[1,5-a]pyridin-2-yl)-6,7-dihydro-1H-imidazo[4,5-c]pyridin-5(4H)-yl)(5-(2-methylpyridin-3-yl)-1,3,4-oxadiazol-2-yl)methanone] | > 5000 |
| Cc1cccc(-c2nnc(C(=O)N3CCc4[nH]cnc4[C@@H]3c3cc4cccc(Cl)n4n3)o2)n1 [Example 1397, (R)-(4-(7-chloropyrazolo[1,5-a]pyridin-2-yl)-6,7-dihydro-1H-imidazo[4,5-c]pyridin-5(4H)-yl)(5-(6-methylpyridin-2-yl)-1,3,4-oxadiazol-2-yl)methanone] | 1000 to 5000 |
| Cc1cccc(-c2nnc(C(=O)N3CCc4[nH]cnc4[C@@H]3c3cc4cccc(C)n4n3)o2)n1 [Example 1399, (R)-(4-(7-methylpyrazolo[1,5-a]pyridin-2-yl)-6,7-dihydro-1H-imidazo[4,5-c]pyridin-5(4H)-yl)(5-(6-methylpyridin-2-yl)-1,3,4-oxadiazol-2-yl)methanone] | 1000 to 5000 |
| Cc1cccc(-c2nnc(C(=O)N3CCc4[nH]cnc4[C@H]3c3cc4cccc(C(F)(F)F)n4n3)o2)n1 [Example 1400, (S)-(5-(6-methylpyridin-2-yl)-1,3,4-oxadiazol-2-yl)(4-(7-(trifluoromethyl)pyrazolo[1,5-a]pyridin-2-yl)-6,7-dihydro-1H-imidazo[4,5-c]pyridin-5(4H)-yl)methanone] | < 500 |
| O=C(c1nnc(-c2ccn(C(F)F)n2)o1)N1CCc2[nH]cnc2[C@@H]1c1cc2cccc(F)n2n1 [Example 1404, (R)-(5-(1-(difluoromethyl)-1H-pyrazol-3-yl)-1,3,4-oxadiazol-2-yl)(4-(7-fluoropyrazolo[1,5-a]pyridin-2-yl)-6,7-dihydro-1H-imidazo[4,5-c]pyridin-5(4H)-yl)methanone] | 1000 to 5000 |
| O=C(c1nnc(-c2ccn(C(F)F)n2)o1)N1CCc2[nH]cnc2[C@H]1c1cc2cccc(F)n2n1 [Example 1405, (S)-(5-(1-(difluoromethyl)-1H-pyrazol-3-yl)-1,3,4-oxadiazol-2-yl)(4-(7-fluoropyrazolo[1,5-a]pyridin-2-yl)-6,7-dihydro-1H-imidazo[4,5-c]pyridin-5(4H)-yl)methanone] | < 500 |

The next lines start with the values.

| AC50 [nM] | SMILES |
| --- | --- |
| < 500 | CC1(c2nnc(C(=O)N3CCc4[nH]cnc4[C@H]3c3cc4c(F)cccn4n3)o2)CC1 [Example 1378, (S)-(4-(4-fluoropyrazolo[1,5-a]pyridin-2-yl)-6,7-dihydro-1H-imidazo[4,5-c]pyridin-5(4H)-yl)(5-(1-methylcyclopropyl)-1,3,4-oxadiazol-2-yl)methanone] |
| > 5000 | CC1(c2nnc(C(=O)N3CCc4[nH]cnc4[C@@H]3c3cc4c(F)cccn4n3)o2)CC1 [Example 1379, (R)-(4-(4-fluoropyrazolo[1,5-a]pyridin-2-yl)-6,7-dihydro-1H-imidazo[4,5-c]pyridin-5(4H)-yl)(5-(1-methylcyclopropyl)-1,3,4-oxadiazol-2-yl)methanone] |
| 1000 to 5000 | O=C(c1nnc(-c2ncccn2)o1)N1CCc2[nH]cnc2[C@@H]1c1cc2c(C(F)(F)F)cccn2n1 [Example 1380, (R)-(5-(pyrimidin-2-yl)-1,3,4-oxadiazol-2-yl)(4-(4-(trifluoromethyl)pyrazolo[1,5-a]pyridin-2-yl)-6,7-dihydro-1H-imidazo[4,5-c]pyridin-5(4H)-yl)methanone] |
| 500 to 1000 | O=C(c1nnc(-c2ncccn2)o1)N1CCc2[nH]cnc2[C@H]1c1cc2c(C(F)(F)F)cccn2n1 [Example 1381, (S)-(5-(pyrimidin-2-yl)-1,3,4-oxadiazol-2-yl)(4-(4-(trifluoromethyl)pyrazolo[1,5-a]pyridin-2-yl)-6,7-dihydro-1H-imidazo[4,5-c]pyridin-5(4H)-yl)methanone] |
| > 5000 | Cc1cccc(-c2nnc(C(=O)N3CCc4[nH]cnc4[C@@H]3c3cc4ccccn4n3)o2)n1 [Example 1383, (R)-(5-(6-methylpyridin-2-yl)-1,3,4-oxadiazol-2-yl)(4-(pyrazolo[1,5-a]pyridin-2-yl)-6,7-dihydro-1H-imidazo[4,5-c]pyridin-5(4H)-yl)methanone] |
| > 5000 | Cc1cccc2cc([C@H]3c4nc[nH]c4CCN3C(=O)c3cc(C(F)F)nn3C)nn12 [Example 1389, (R)-(3-(difluoromethyl)-1-methyl-1H-pyrazol-5-yl)(4-(7-methylpyrazolo[1,5-a]pyridin-2-yl)-6,7-dihydro-1H-imidazo[4,5-c]pyridin-5(4H)-yl)methanone] |
| 500 to 1000 | O=C(c1nnc(C2CC2)o1)N1CCc2[nH]cnc2[C@H]1c1cc2cccc(C(F)F)n2n1 [Example 1390, (S)-(5-cyclopropyl-1,3,4-oxadiazol-2-yl)(4-(7-(difluoromethyl)pyrazolo[1,5-a]pyridin-2-yl)-6,7-dihydro-1H-imidazo[4,5-c]pyridin-5(4H)-yl)methanone] |
| 1000 to 5000 | O=C(c1nnc(C2CC2)o1)N1CCc2[nH]cnc2[C@@H]1c1cc2cccc(C(F)F)n2n1 [Example 1391, (R)-(5-cyclopropyl-1,3,4-oxadiazol-2-yl)(4-(7-(difluoromethyl)pyrazolo[1,5-a]pyridin-2-yl)-6,7-dihydro-1H-imidazo[4,5-c]pyridin-5(4H)-yl)methanone] |
| 1000 to 5000 | O=C(c1nnc(-c2ncccn2)o1)N1CCc2[nH]cnc2[C@@H]1c1cc2cccc(Cl)n2n1 [Example 1392, (R)-(4-(7-chloropyrazolo[1,5-a]pyridin-2-yl)-6,7-dihydro-1H-imidazo[4,5-c]pyridin-5(4H)-yl)(5-(pyrimidin-2-yl)-1,3,4-oxadiazol-2-yl)methanone] |
| < 500 | Cc1cccc(-c2nnc(C(=O)N3CCc4[nH]cnc4[C@H]3c3cc4cccc(Cl)n4n3)o2)n1 [Example 1396, (S)-(4-(7-chloropyrazolo[1,5-a]pyridin-2-yl)-6,7-dihydro-1H-imidazo[4,5-c]pyridin-5(4H)-yl)(5-(6-methylpyridin-2-yl)-1,3,4-oxadiazol-2-yl)methanone] |
| 1000 to 5000 | Cc1cccc(-c2nnc(C(=O)N3CCc4[nH]cnc4[C@@H]3c3cc4cccc(C(F)(F)F)n4n3)o2)n1 [Example 1401, (R)-(5-(6-methylpyridin-2-yl)-1,3,4-oxadiazol-2-yl)(4-(7-(trifluoromethyl)pyrazolo[1,5-a]pyridin-2-yl)-6,7-dihydro-1H-imidazo[4,5-c]pyridin-5(4H)-yl)methanone] |
| 500 to 1000 | Cn1nc(C(F)F)cc1C(=O)N1CCc2[nH]cnc2[C@H]1c1cc2cccc(C(F)F)n2n1 [Example 1402, (S)-(3-(difluoromethyl)-1-methyl-1H-pyrazol-5-yl)(4-(7-(difluoromethyl)pyrazolo[1,5-a]pyridin-2-yl)-6,7-dihydro-1H-imidazo[4,5-c]pyridin-5(4H)-yl)methanone] |
